Measured values taken from patent EP0022969A1, “Antimycotic compositions containing azolylalkenols and their preparation” (BAYER AG, priority 1979, dated 1981).

Test system: Trichophyton mentagrophytes
Experiment: Antimicrobial in vivo activity (local) in experimental guinea pig trichophytosis
Parameters: species or system Meerschweinchen der Rasse Pirbright-white
Conditions: guinea pigs infected with Trichophyton mentagrophytes; 1% solution in DMSO:glycerol 1:4, local, once daily from day 3 p.i.; meaning only slight redness and isolated scales, or no signs of infection
Excerpt: Weiße Meerschweinchen der Rasse Pirbright-white wurden auf dem geschorenen, nicht skarifizierten Rücken mit einer Mikro- und Makrokonidien-Suspension von Trichophyton mentagrophytes infiziert.
Die infizierten Tiere wurden, beginnend mit dem 3.Tag p.i., 1 x täglich mit 1%-iger Lösung der erfindungsgemäßen Präparate (in Dimethylsulfoxid:Glycerin=1:4) lokal behandelt.
Bei unbehandelten Tieren entwickelt sich innerhalb von 12 Tagen p.i. das typische Bild einer Dermatophytose mit Rötung, Schuppung und Haarausfall bis zum totalen Integument-Defekt an der Infektionsstelle.

Row | Compound | Wirkung (Infektionszeichen)
1 | CC(C)(C)C(O)C(=Cn1ccnc1)Oc1ccc(F)cc1 (stereo not drawn) [Beispiel 1] | gute bis sehr gute Wirkung
2 | CC(C)(C)C(O)C(=Cn1ccnc1)Oc1ccc(F)cc1Cl (stereo not drawn) [Beispiel 9] | gute bis sehr gute Wirkung
3 | CC(C)(C)C(O)C(=Cn1ccnc1)Oc1ccccc1Cl (stereo not drawn) [Beispiel 5] | gute bis sehr gute Wirkung
